Experiments:
[1] = test system: primary rat neonatal cardiomyocytes; test: primary neonatal cardiomyocytes cultured on laminin-coated glass; format: cell-based
Protocol: To test the response of post-natal cardiomyocytes, primary rat neonatal cardiomyocytes were cultured on laminin-coated glass and treated the cells with phosphate buffered saline (PBS) or thymosin β4. […] In addition to thymosin β4's effects on myocardial cell migration, a similar effect was observed on endothelial migration in the embryonic heart explant assay.
Primary culture of neonatal cardiomyocytes typically survived for approximately one to two weeks with some cells beating up to two weeks when grown on laminin-coated slides in our laboratory. […] In addition, the rate of beating was consistently faster in thymosin β4-treated neonatal cardiomyocytes (95 vs. 50 beats per minute, p<0.02), indicating either a change in cell-cell communication or more vigorous cardiomyocytes.

ILK = ILK localization, expression and activation (immunocytochemistry, Western); format: cell-based
Protocol: Because recruitment of ILK to the focal adhesion complex is important for its activation, the effects of thymosin β4 on ILK localization and expression were assayed. […] Because thymosin β4 sequesters the pool of G-actin monomers, the effects on ILK activation were dependent on thymosin β4's role in regulating the balance between polymerized F-actin and monomeric G-actin were tested. F-actin polymerization was inhibited using C3 transferase and also F-actin formation was promoted with an activated Rho, but neither intervention affected the ILK activation observed after treatment of COS1 or C2C 12 cells with thymosin β4.

Question: Which “migrational distance of neonatal cardiomyocytes” value ([1]; compared to PBS control, p<0.05) does the source give for thymosin β4 here?
Answer: significantly increased

Question: And the “survival, rhythmically contracting myocytes visible” value ([1]; laminin-coated slides, untreated cultures approximately one to two weeks)?
Answer: up to 28 days

Question: And the rate of beating ([1]; vs. 50 in control, p<0.02)?
Answer: 95 beats per minute

Question: What about the “ILK protein levels by Western analysis” value (ILK; C2C12 cells) of the same substance?
Answer: modest increase

Question: What about the “total Akt protein” value (ILK; C2C12 cells) of the same substance?
Answer: unchanged

Question: And the “phosphorylation of Akt (serine 473)” value (ILK; C2C12 cells, phospho-specific antibody)?
Answer: increased phosphorylation

Question: What about the “ILK detection by immunocytochemistry around the cell edges” value (ILK; embryonic heart explants or C2C12 myoblasts, synthetic thymosin β4 10 ng/100 ul or expressing plasmid) of the same substance?
Answer: markedly enhanced

From US20090169538A1, “Methods of Treating or Preventing Tissue Damage Caused by Increased Blood Flow” (REGENERX BIOPHARMACEUTICALS, INC., priority 2006, published 2009)
